# Patent publication US20120271010A1, “HYDROPHILIC POLYMER COMPOUND HAVING ANTICOAGULATION EFFECT” (TORAY INDUSTRIES, INC., priority 2009, published 2012)
# System: blood collected from a volunteer
# Test: Measurement of whole blood clotting time (Sonoclot, ACT ONSET)
# Design: species or system human
# Method: The blood collected from a volunteer and citric acid were mixed at a volume ratio of 9/1 to prepare blood supplemented with citric acid.
# In a cuvette (NON-ACTIVATED CLOTTING TEST KIT), 18 μL of physiological saline solution was placed, and 14.8 μL of calcicol was added thereto, followed by further adding 342 μL of blood supplemented with citric acid. Thereafter, the measurement using Sonoclot Blood Coagulation/Platelet Function Analyzer (IMI) was carried out to define the obtained ACT ONSET value as whole blood clotting time. The whole blood clotting time of the blood collected by volunteer was 545 seconds.
structure (smiles),measurement,setting,value
"CC1CNc2c(cccc2S(=O)(=O)N[C@@H](CCCNC(=N)N)C(=O)N2CC[C@@H](C)C[C@@H]2C(=O)O)C1 (mixture of isomers) [argatroban, (2R,4R)-4-methyl-1-((2S)-2-{[(3RS)-3-methyl-1,2,3,4-tetrahydroquinolin-8-yl]sulfonyl}amino-5-guanidinopentanoyl)piperidin-2-carboxylic acid]",Whole blood clotting time,2 μM argatroban solution in place of physiological saline solution,531 s
same,Whole blood clotting time,10 μM argatroban solution in place of physiological saline solution,746 s
same,Whole blood clotting time,20 μM argatroban solution in place of physiological saline solution,849 s
